Measured values from ChEMBL document CHEMBL3885861, “Open TG-GATES”.

Species: Rattus norvegicus
Experiment: Open TG-GATES - Regimen: Daily Repeat
Format: toxicity, organism-based, Sprague-Dawley
Parameters: regimen Daily Repeat, gender Male, age 6 weeks
Settings: in vivo, po, route gavage; for APTT / Bas / Eos / Fbg / Hb / Ht / Lym / MCHC / MCV / Mono / Neu / PT / Plat / RBC / Ret / WBC: tissue Blood; for KIDNEY_L / KIDNEY_R / KIDNEY_TOTAL: tissue Kidney; for LIVER: tissue Liver; for ALP / ALT / AST / CRE / DBIL / GLC / IP / K / LDH / Na / PL / RALB / TBIL / TC / TG / TP / gamma-GTP: tissue Plasma
[1] = 0 mg/kg, 72 h, dose level Control, time 3 day
[2] = 0 mg/kg, […], dose level Control, time 7 day
[3] = 0 mg/kg, […], dose level Control, time 14 day
[4] = 0 mg/kg, […], dose level Control, time 28 day
[5] = 60 mg/kg, 72 h, dose level Low, time 3 day
[6] = 60 mg/kg, […], dose level Low, time 7 day
[7] = 60 mg/kg, […], dose level Low, time 14 day
[8] = 60 mg/kg, […], dose level Low, time 28 day

SMILES: O=C1NC(=O)C(c2ccccc2)(c2ccccc2)N1 [PHENYTOIN]
- TERMINAL_BW [1]: 217.7 g
- APTT [1]: 21.2 s
- Bas [1]: 0%
- Eos [1]: 0.8%
- Fbg [1]: 301.8 mg/dL
- Hb [1]: 13.3 g/dL
- Ht [1]: 39%
- Lym [1]: 81.2%
- MCHC [1]: 34.1%
- MCV [1]: 64.2 fL
- Mono [1]: 2.4%
- Neu [1]: 15.2%
- PT [1]: 16 s
- Plat [1]: 126.3 x10_4/uL
- RBC [1]: 608.6 x10_4/ul
- Ret [1]: 7.4%
- WBC [1]: 73.8 x10_2/uL
- KIDNEY_L [1]: 1 g
- KIDNEY_R [1]: 1 g
- KIDNEY_TOTAL [1]: 1.9 g
- LIVER [1]: 10.1 g
- ALP [1]: 1688.4 IU/L
- ALT [1]: 46.8 IU/L
- AST [1]: 71 IU/L
- CRE [1]: 0.1 mg/dL
- DBIL [1]: 0 mg/dL
- GLC [1]: 192.6 mg/dL
- IP [1]: 7.6 mg/dL
- K [1]: 4.1 meq/L
- LDH [1]: 178.6 IU/L
- Na [1]: 143 meq/L
- PL [1]: 141.6 mg/dL
- RALB [1]: 3.1 g/dL
- TBIL [1]: 0.018 mg/dL
- TC [1]: 73.4 mg/dL
- TG [1]: 84 mg/dL
- TP [1]: 5.7 g/dL
- gamma-GTP [1]: 1 IU/L
- TERMINAL_BW [2]: 247 g
- TERMINAL_BW [3]: 296.2 g
- TERMINAL_BW [4]: 378.5 g
- APTT [2]: 20.8 s
- Bas [2]: 0%
- Eos [2]: 0.4%
- Fbg [2]: 300.4 mg/dL
- Hb [2]: 13.4 g/dL
- Ht [2]: 39.2%
- Lym [2]: 82.2%
- MCHC [2]: 34.2%
- MCV [2]: 62.4 fL
- Mono [2]: 2.4%
- Neu [2]: 13.6%
- PT [2]: 16 s
- Plat [2]: 125.6 x10_4/uL
- RBC [2]: 628 x10_4/ul
- Ret [2]: 5.6%
- WBC [2]: 113.7 x10_2/uL
- APTT [3]: 21.7 s
- Bas [3]: 0%
- Eos [3]: 1%
- Fbg [3]: 290.6 mg/dL
- Hb [3]: 14.1 g/dL
- Ht [3]: 40.9%
- Lym [3]: 81.4%
- MCHC [3]: 34.4%
- MCV [3]: 59.2 fL
- Mono [3]: 2.2%
- Neu [3]: 14.8%
- PT [3]: 16.5 s
- Plat [3]: 124.2 x10_4/uL
- RBC [3]: 690 x10_4/ul
- Ret [3]: 4.6%
- WBC [3]: 135.4 x10_2/uL
- APTT [4]: 23.3 s
- Bas [4]: 0%
- Eos [4]: 1%
- Fbg [4]: 307.4 mg/dL
- Hb [4]: 15.3 g/dL
- Ht [4]: 42.8%
- Lym [4]: 83.4%
- MCHC [4]: 35.7%
- MCV [4]: 58.7 fL
- Mono [4]: 1.6%
- Neu [4]: 13.4%
- PT [4]: 15.8 s
- Plat [4]: 116.4 x10_4/uL
- RBC [4]: 728.8 x10_4/ul
- Ret [4]: 3.1%
- WBC [4]: 147.1 x10_2/uL
- KIDNEY_L [2]: 1 g
- KIDNEY_R [2]: 1 g
- KIDNEY_TOTAL [2]: 2.1 g
- KIDNEY_L [3]: 1.2 g
- KIDNEY_R [3]: 1.2 g
- KIDNEY_TOTAL [3]: 2.4 g
- KIDNEY_L [4]: 1.3 g
- KIDNEY_R [4]: 1.3 g
- KIDNEY_TOTAL [4]: 2.6 g
- LIVER [2]: 11.2 g
- LIVER [3]: 12.7 g
- LIVER [4]: 15.6 g
- ALP [2]: 1443 IU/L
- ALT [2]: 34.8 IU/L
- AST [2]: 65 IU/L
- CRE [2]: 0.2 mg/dL
- DBIL [2]: 0.004 mg/dL
- GLC [2]: 197.2 mg/dL
- IP [2]: 7.7 mg/dL
- K [2]: 4.6 meq/L
- LDH [2]: 197 IU/L
- Na [2]: 141.6 meq/L
- PL [2]: 140 mg/dL
- RALB [2]: 2.9 g/dL
- TBIL [2]: 0.024 mg/dL
- TC [2]: 67.4 mg/dL
- TG [2]: 131.4 mg/dL
- TP [2]: 5.6 g/dL
- gamma-GTP [2]: 0.8 IU/L
- ALP [3]: 1493.2 IU/L
- ALT [3]: 40 IU/L
- AST [3]: 63 IU/L
- CRE [3]: 0.2 mg/dL
- DBIL [3]: 0 mg/dL
- GLC [3]: 199.4 mg/dL
- IP [3]: 7.2 mg/dL
- K [3]: 4.3 meq/L
- LDH [3]: 136.4 IU/L
- Na [3]: 141.4 meq/L
- PL [3]: 147.4 mg/dL
- RALB [3]: 3 g/dL
- TBIL [3]: 0.012 mg/dL
- TC [3]: 68.4 mg/dL
- TG [3]: 154 mg/dL
- TP [3]: 5.6 g/dL
- gamma-GTP [3]: 1.8 IU/L
- ALP [4]: 1238 IU/L
- ALT [4]: 38.8 IU/L
- AST [4]: 61.8 IU/L
- CRE [4]: 0.3 mg/dL
- DBIL [4]: 0.004 mg/dL
- GLC [4]: 189.6 mg/dL
- IP [4]: 6.3 mg/dL
- K [4]: 3.9 meq/L
- LDH [4]: 151.4 IU/L
- Na [4]: 142.4 meq/L
- PL [4]: 139.6 mg/dL
- RALB [4]: 3 g/dL
- TBIL [4]: 0.022 mg/dL
- TC [4]: 67.8 mg/dL
- TG [4]: 143.4 mg/dL
- TP [4]: 6.1 g/dL
- gamma-GTP [4]: 1.2 IU/L
- TERMINAL_BW [5]: 222.2 g
- APTT [5]: 21.7 s
- Bas [5]: 0%
- Eos [5]: 0.6%
- Fbg [5]: 311.4 mg/dL
- Hb [5]: 13 g/dL
- Ht [5]: 38.1%
- Lym [5]: 81.6%
- MCHC [5]: 34.1%
- MCV [5]: 65.7 fL
- Mono [5]: 1.4%
- Neu [5]: 15.2%
- PT [5]: 15.7 s
- Plat [5]: 130.4 x10_4/uL
- RBC [5]: 581.8 x10_4/ul
- Ret [5]: 7.7%
- WBC [5]: 82.9 x10_2/uL
- KIDNEY_L [5]: 1 g
- KIDNEY_R [5]: 1 g
- KIDNEY_TOTAL [5]: 2 g
- LIVER [5]: 10.7 g
- ALP [5]: 1528 IU/L
- ALT [5]: 38 IU/L
- AST [5]: 65.8 IU/L
- CRE [5]: 0.1 mg/dL
- DBIL [5]: 0 mg/dL
- GLC [5]: 185.4 mg/dL
- IP [5]: 7.5 mg/dL
- K [5]: 4.3 meq/L
- LDH [5]: 213.4 IU/L
- Na [5]: 143 meq/L
- PL [5]: 156 mg/dL
- RALB [5]: 3.1 g/dL
- TBIL [5]: 0.01 mg/dL
- TC [5]: 81.4 mg/dL
- TG [5]: 104.2 mg/dL
- TP [5]: 5.8 g/dL
- gamma-GTP [5]: 1.4 IU/L
- TERMINAL_BW [6]: 250.5 g
- TERMINAL_BW [7]: 308.9 g
- TERMINAL_BW [8]: 366.2 g
- APTT [6]: 22.8 s
- Bas [6]: 0%
- Eos [6]: 1%
- Fbg [6]: 314.8 mg/dL
- Hb [6]: 13.7 g/dL
- Ht [6]: 40.7%
- Lym [6]: 80%
- MCHC [6]: 33.6%
- MCV [6]: 62.6 fL
- Mono [6]: 2.6%
- Neu [6]: 15.8%
- PT [6]: 15.6 s
- Plat [6]: 124.8 x10_4/uL
- RBC [6]: 650.8 x10_4/ul
- Ret [6]: 6.1%
- WBC [6]: 113.1 x10_2/uL
- APTT [7]: 22.6 s
- Bas [7]: 0%
- Eos [7]: 0.8%
- Fbg [7]: 277.4 mg/dL
- Hb [7]: 13.9 g/dL
- Ht [7]: 40.8%
- Lym [7]: 80.6%
- MCHC [7]: 34.2%
- MCV [7]: 60.8 fL
- Mono [7]: 2.2%
- Neu [7]: 15.6%
- PT [7]: 16.2 s
- Plat [7]: 104.4 x10_4/uL
- RBC [7]: 670.4 x10_4/ul
- Ret [7]: 5%
- WBC [7]: 136.7 x10_2/uL
- APTT [8]: 22.8 s
- Bas [8]: 0%
- Eos [8]: 0.8%
- Fbg [8]: 298.8 mg/dL
- Hb [8]: 15.5 g/dL
- Ht [8]: 43.8%
- Lym [8]: 86.8%
- MCHC [8]: 35.5%
- MCV [8]: 57.3 fL
- Mono [8]: 1.8%
- Neu [8]: 10%
- PT [8]: 16 s
- Plat [8]: 107 x10_4/uL
- RBC [8]: 764.6 x10_4/ul
- Ret [8]: 2.6%
- WBC [8]: 141.5 x10_2/uL
- KIDNEY_L [6]: 1.1 g
- KIDNEY_R [6]: 1.1 g
- KIDNEY_TOTAL [6]: 2.1 g
- KIDNEY_L [7]: 1.3 g
- KIDNEY_R [7]: 1.3 g
- KIDNEY_TOTAL [7]: 2.6 g
- KIDNEY_L [8]: 1.3 g
- KIDNEY_R [8]: 1.3 g
- KIDNEY_TOTAL [8]: 2.6 g
- LIVER [6]: 11.8 g
- LIVER [7]: 14.1 g
- LIVER [8]: 14.2 g
- ALP [6]: 1555.8 IU/L
- ALT [6]: 40.4 IU/L
- AST [6]: 64.8 IU/L
- CRE [6]: 0.2 mg/dL
- DBIL [6]: 0 mg/dL
- GLC [6]: 184.6 mg/dL
- IP [6]: 7 mg/dL
- K [6]: 4.4 meq/L
- LDH [6]: 169.2 IU/L
- Na [6]: 141.8 meq/L
- PL [6]: 148.2 mg/dL
- RALB [6]: 3 g/dL
- TBIL [6]: 0.034 mg/dL
- TC [6]: 73.6 mg/dL
- TG [6]: 108 mg/dL
- TP [6]: 5.6 g/dL
- gamma-GTP [6]: 1.2 IU/L
- ALP [7]: 1361 IU/L
- ALT [7]: 40.4 IU/L
- AST [7]: 63.2 IU/L
- CRE [7]: 0.2 mg/dL
- DBIL [7]: 0.008 mg/dL
- GLC [7]: 186.8 mg/dL
- IP [7]: 7.6 mg/dL
- K [7]: 4.2 meq/L
- LDH [7]: 176.6 IU/L
- Na [7]: 142.6 meq/L
- PL [7]: 152.4 mg/dL
- RALB [7]: 3.1 g/dL
- TBIL [7]: 0.012 mg/dL
- TC [7]: 74.2 mg/dL
- TG [7]: 129.6 mg/dL
- TP [7]: 5.5 g/dL
- gamma-GTP [7]: 1.2 IU/L
- ALP [8]: 1279.2 IU/L
- ALT [8]: 41 IU/L
- AST [8]: 64.4 IU/L
- CRE [8]: 0.2 mg/dL
- DBIL [8]: 0.004 mg/dL
- GLC [8]: 181.2 mg/dL
- IP [8]: 5.8 mg/dL
- K [8]: 3.9 meq/L
- LDH [8]: 231.2 IU/L
- Na [8]: 143.4 meq/L
- PL [8]: 131.6 mg/dL
- RALB [8]: 3.1 g/dL
- TBIL [8]: 0.028 mg/dL
- TC [8]: 66.6 mg/dL
- TG [8]: 107.4 mg/dL
- TP [8]: 6.1 g/dL
- gamma-GTP [8]: 1.4 IU/L
